Source: US9260400B2, “I-arylpiperazinic ligands of 5-HT7 receptor and use thereof” (UNIVERSITA' DEGLI STUDI DI BARI “ALDO MORO”, priority 2011, dated 2016)

Assays:
[1] = target: T1, Human 5-HT1A serotonin receptors (Homo sapiens, UniProt P08908); experiment: Radioligand binding assay at human cloned 5-HT1A receptor ([3H]-8-OH-DPAT); conditions: compound at 10−7M
T1 construct: expressed in transfected cells; host or cells: HEK293-EBNA
T1 sequence (P08908 1-422): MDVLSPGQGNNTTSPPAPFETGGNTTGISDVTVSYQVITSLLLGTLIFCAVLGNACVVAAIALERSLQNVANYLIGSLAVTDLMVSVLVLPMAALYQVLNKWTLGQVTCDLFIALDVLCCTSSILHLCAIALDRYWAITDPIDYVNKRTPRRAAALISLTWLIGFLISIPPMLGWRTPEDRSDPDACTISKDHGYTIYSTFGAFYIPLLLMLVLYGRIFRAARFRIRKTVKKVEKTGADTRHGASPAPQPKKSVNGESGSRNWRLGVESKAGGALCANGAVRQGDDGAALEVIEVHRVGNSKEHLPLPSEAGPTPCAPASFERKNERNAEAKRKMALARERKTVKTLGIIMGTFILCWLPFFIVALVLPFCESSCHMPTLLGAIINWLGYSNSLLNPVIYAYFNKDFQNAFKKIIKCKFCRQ
Description: Radioligand Binding Assay At Human Cloned 5-HT1A Receptor
Human 5-HT1A serotonin receptors stably expressed in HEK293-EBNA cells were radiolabeled with 1.0 nM [^3H]-8-OH-DPAT [J. Biol. Chem. 1989, 264, 14848]. Samples containing 32 μg of membrane protein, different concentrations of each compound ranging from 0.1 nM to 10 μM were incubated in a final volume of 500 μL of 50 mM Tris-HCl pH 7.4, 5 mM MgSO4 for 120 min at […]. After this incubation time, samples were filtered through Whatman GF/C glass microfiber filters pre-soaked in polyethylenimine 0.5% for at least 30 min prior to use. The filters were washed twice with 1 ml of ice-cold buffer (50 mM Tris-HCl, pH 7.4). Nonspecific binding was determined in the presence of 10 μM 5-HT.
(§1) Competition binding data were analyzed using the GraphPad Prism Software (GraphPad Software, Inc., San Diego, Calif., USA). The value for the inhibition constant, Ki, was calculated by using the Cheng-Prusoff equation [Anal. Biochem. 1980, 107, 200-239].

[2] = In vitro metabolic stability using liver S9 fractions; format: in vitro ADME; conditions: 10 μM compound, 1 mg/ml rat liver S9, 30 min at 37° C.
Description: Determination of in vitro Metabolic Stability Using Liver S9 Fractions
Tested compounds (10 μM) were incubated with rat liver S9 fractions (1 mg/ml), liver S9 fractions are subcellular fractions that contain drug-metabolizing enzymes such as cytochromes P450, flavin monooxygenases, and UDP glucuronyl transferases.
The incubation was performed in 100 mM phosphate buffer (pH 7.4) containing 1.3 mM of NADP+, 3.3 mM glucose 6-phosphate and 0.4 U/ml glucose 6-phosphate dehydrogenase, 3.3 mM MgCl2 in a total volume of 1 mL. Incubations were commenced with the addition of glucose 6-phosphate dehygrogenase and carried out for 30 min. at 37° C. The reaction was stopped by adding 1 mL of cooled acetonitrile. The samples were centrifuged at 4600 rpm for 10 min at 4° C. The supernatant was separated and the acetonitrile phase was analyzed by using a reversed-phase HPLC equipped with a Perkin-Elmer series 200 LC pump and a Perkin-Elmer 785A UV/VIS detector. UV signals were monitored and obtained peaks integrated using a personal computer running Perkin-Elmer Turbochrom Software. The column used was a Phenomenex Gemini C-18 (250×4.6 mm, 5 μm particle size). The samples were eluted with ammonium formate (20 mM; pH 6.7) and acetonitrile 80:20 v/v at a flow rate of 1 mL/min and at the appropriate UV wavelength. The sample injection volume was 20 μL.
This assay provides information on the xenobiotic metabolism of the tested compounds; the results obtained are reported in table 1.

[3] = target: T2, human cloned 5-HT7 receptor (Homo sapiens, UniProt P34969); experiment: Radioligand binding assay at human cloned 5-HT7 receptors ([3H]-5-CT competition); conditions: read-out: 5-HT7 (pKi) (converted)
T2 construct: expressed in transfected cells
Description: Radioligand Binding Assay At Human Cloned 5-HT7 Receptors
Functionality assays on the 5-HT7 receptor were done according to Jasper et al [Br. J. Pharmacol. 1997, 122, 126.] with minor modifications. The test is a competition assay based on binding of [^3H]-5-CT at human cloned 5-HT7 receptor. In 0.5 mL of incubation buffer (50 mM Tris-HCl, 10 mM MgSO4 and 0.5 mM EDTA, pH 7.4) were suspended 34 μg of membranes, 1.5 nM [^3H]-5-CT, the drugs or reference compound (six to nine concentrations). The samples were incubated for 120 min at 27° C. The incubation was stopped by rapid filtration on Whatman GF/C glass microfiber filters (pre-soaked in 0.3% polyethylenimine for 30 min). The filters were washed with 3×1 mL of ice-cold buffer (50 mM Tris-HCl, pH 7.4). Nonspecific binding was determined in the presence of 10 μM 5-CT. Approximately 90% of specific binding was determined under these conditions.
as §1

[4] = after 20 minutes following i.p injection; cited from earlier work

T2 sequence (P34969 whole entry): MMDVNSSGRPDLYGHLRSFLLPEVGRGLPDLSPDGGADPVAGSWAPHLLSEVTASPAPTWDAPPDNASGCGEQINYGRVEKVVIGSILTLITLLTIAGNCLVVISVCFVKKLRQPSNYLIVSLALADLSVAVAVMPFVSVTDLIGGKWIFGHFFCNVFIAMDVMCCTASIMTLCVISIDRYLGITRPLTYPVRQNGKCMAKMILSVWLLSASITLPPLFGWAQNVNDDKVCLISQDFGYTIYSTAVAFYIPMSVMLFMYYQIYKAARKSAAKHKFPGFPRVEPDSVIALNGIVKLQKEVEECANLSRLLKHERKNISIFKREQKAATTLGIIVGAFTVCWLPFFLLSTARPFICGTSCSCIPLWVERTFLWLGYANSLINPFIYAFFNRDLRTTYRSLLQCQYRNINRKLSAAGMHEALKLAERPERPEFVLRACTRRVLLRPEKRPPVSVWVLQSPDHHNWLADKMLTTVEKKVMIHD

SMILES	5-HT1A (% displacement of radioligand at 10−7M conc.) [1] [%]	% parent compound after incubation with rat liver S9 fractions [2] [%]	Ki [3] [nM]	plasma and brain concentration [4]
COc1ccc(OCC(O)CN2CCN(c3ccccc3-c3ccccc3)CC2)cc1 (stereo not shown) [Example 1, 1-(4-Methoxyphenoxy)-3-[4-(2-biphenyl)piperazin-1-yl] propan-2-ol]	46	35	16.6	–
COc1ccc(OCC(O)CN2CCN(c3ncccc3-c3ccncc3)CC2)cc1 (stereo not shown) [Example 5, 1-(4-Methoxyphenoxy)-3-[4-[3-(4-pyridyl)-2-pyridyl]piperazin-1-yl]propan-2-ol]	26	82	7.59	–
COc1cccc(C(F)CN2CCN(c3ncccc3-c3ccccn3)CC2)c1 (stereo not shown) [Example 12, 1-[2-Fluoro-2-(3-methoxyphenyl)ethyl]-4-[3-(2-pyridyl)-2-pyridyl)piperazine]	25	84	6.92	–
COc1cccc(OCCN2CCN(c3ncccc3-c3ccccn3)CC2)c1 [Example 15, 1-[2-(3-Methoxyphenoxy)ethyl]4-[3-(2-pyridyl)-2-pyridyl]piperazine]	35	78	5.37	–
FCCOc1ccc(OCCN2CCN(c3ncccc3-c3ccccn3)CC2)cc1 [Example 18, 1-[2-[4-(2-Fluoroethoxy)phenoxy]ethyl]-4-[3-(2-pyridyl)-2-pyridyl]piperazine]	20	68	20	–
COc1ccc(-c2ccccc2N2CCN(CCCCCC(=O)NCc3ccccn3)CC2)cc1 [Example 21, 4-[2-(4-Methoxyphenyl)phenyl]-N-(2-pyridinylmethyl)-1-piperazinehexanamide]	37	55	1.62	–
COc1ccc(CNC(=O)CCCCCN2CCN(c3ncccc3-c3ccccn3)CC2)cc1 [Example 24, N-[(4-Methoxyphenyl)methyl]-6-[4-[3-(2-pyridyl)-2-pyridyl]piperazin-1-yl]hexanamide]	31	80	5.75	–
CSc1ccccc1N1CCN(CCCCCC(=O)NC2CCCc3ccccc32)CC1 (stereo not shown) [LP-44]	–	–	–	undetectable
